Results reported in ChEMBL document CHEMBL5674860, “Optimized Dual-Glo Assay to identify co-culture-induced drug vulnerabilities in 3D CRC models” (2024).

How the values were obtained:
Format in all cases: functional, Homo sapiens
Set-up in all cases: dose or concentration left out as unconfirmed
Colon cancer organoid [1] = assay: Optimized Dual-Glo assay to identify co-culture induced drug vulnerabilities using donated chemical probes and chemogenomics kinase set in O06 CRC organoid and F06 CAF mono and co-culture. […] Cell viability is reported both mono and co-culture models.
Colon cancer organoid [2] = assay: Optimized Dual-Glo assay to identify co-culture induced drug vulnerabilities using donated chemical probes and chemogenomics kinase set in O14 CRC organoid and F14 CAF mono and co-culture. […] Cell viability is reported both mono and co-culture models.
Colon cancer organoid [3] = assay: Optimized Dual-Glo assay to identify co-culture induced drug vulnerabilities using donated chemical probes and chemogenomics kinase set in O20 CRC organoid and F20 CAF mono and co-culture. […] Cell viability is reported both mono and co-culture models.
[4] = Culture type Co-Culture, Transduced with Lucferase2-P2A-EGFP lentivirus
[5] = Culture type Co-Culture, Transduced with Renilla-dsRed lentivirus
[6] = Culture type Mono-Culture, Transduced with Lucferase2-P2A-EGFP lentivirus
[7] = Culture type Mono-Culture, Transduced with Renilla-dsRed lentivirus

| Compound | Cell Viability (Colon cancer organoid [1]; [4]) | Cell Viability (Colon cancer organoid [1]; [5]) | Cell Viability (Colon cancer organoid [1]; [6]) | Cell Viability (Colon cancer organoid [1]; [7]) | Cell Viability (Colon cancer organoid [2]; [4]) | Cell Viability (Colon cancer organoid [2]; [5]) | Cell Viability (Colon cancer organoid [2]; [6]) | Cell Viability (Colon cancer organoid [2]; [7]) | Cell Viability (Colon cancer organoid [3]; [4]) | Cell Viability (Colon cancer organoid [3]; [5]) | Cell Viability (Colon cancer organoid [3]; [6]) | Cell Viability (Colon cancer organoid [3]; [7]) |
| --- | --- | --- | --- | --- | --- | --- | --- | --- | --- | --- | --- | --- |
| CCS(=O)(=O)c1cc2cc(C[C@](O)(CC(C)(C)c3ccc(F)cc3C(N)=O)C(F)(F)F)[nH]c2cn1 [BI 653048] | 136.436% | 297.33% | 97.0766% | 179.661% | 98.1614% | 169.499% | 94.8893% | 163.254% | 85.6205% | 287.465% | 124.389% | 135.577% |
| COc1cccc2c1C(=O)c1c(O)c3c(c(O)c1C2=O)CC(O)(C(=O)CO)CC3OC1CC(N)C(O)C(C)O1.Cl (stereo not drawn) | 14.9439% | 235.56% | 8.313% | 104.821% | 1.614% | 163.438% | 2.622% | 97.5605% | 5.379% | 237.178% | 7.074% | 81.7547% |
| N#CN1CC[C@H](C(=O)Nc2nc3c(s2)CN(C(=O)CN=[N+]=[N-])CC3)C1 [8RK64] | 104.648% | 104.354% | 102.804% | 85.3904% | 91.8118% | 102.385% | 81.5329% | 88.8457% | 67.2995% | 105.29% | 57.1131% | 75.6901% |
| CC(=O)NCC(=O)N1[C@@H]2CC[C@H]1c1ccc(Nc3ncc(C(F)(F)F)c(NC4CCC4)n3)cc12 [PF-03814735] | 12.5382% | 132.747% | 7.137% | 42.3421% | 21.4424% | 92.7993% | 23.2786% | 69.2613% | 4.585% | 155.761% | 7.993% | 63.4074% |
| Cc1c(Nc2ccc(S(=O)(=O)N3CCN(C)CC3)cc2F)nc2ccc(Nc3cnn(C4CC4)c3)cn2c1=O | 81.8172% | 120.859% | 129.193% | 116.74% | 111.5% | 108.059% | 92.684% | 101.792% | 117.664% | 135.679% | 121.681% | 97.2871% |
| CN(C)C(=O)c1sc2nc(N3CCC(S(C)(=O)=O)CC3)cc(C(F)(F)F)c2c1N [BI-5026] | 108.851% | 103.89% | 124.761% | 97.708% | 89.3398% | 95.8994% | 89.8333% | 92.7462% | 82.5801% | 112.021% | 96.6036% | 91.1442% |
| Cc1cccc(-c2cnc3occ(-c4ccc(C(=O)O)c(C5CCCC5)c4)c3c2)c1 | 95.2844% | 61.5637% | 124.633% | 116.796% | 114.736% | 94.3308% | 126.625% | 90.9911% | 88.6258% | 133.429% | 94.6873% | 103.401% |
| CC(C)S(=O)(=O)c1ccc2nccc(Nc3ccc4scnc4c3)c2c1 | 84.0973% | 95.5761% | 123.937% | 111.512% | 101.708% | 94.4181% | 92.6068% | 100.536% | 145.741% | 98.2209% | 115.329% | 92.1603% |
| C[C@H](c1ccc(F)cc1)N(Cc1cccc(C(=O)O)c1)C(=O)c1cnc2ccccc2c1 [PF-05105679] | 133.625% | 152.049% | 106.722% | 91.4083% | 81.4426% | 118.111% | 74.3119% | 99.7573% | 143.937% | 111.508% | 109.64% | 98.1235% |
